Here are results for two compounds from US7198942B2, “Acetylcholine receptor subunits” (Bayer CropScience LP, priority 2000, dated 2007).

Experiment [1] concerns receptors comprising unmodified Heliothis α1 subunits and chicken β2 subunits. Kind of experiment: Dual electrode voltage clamp on Xenopus oocytes expressing Heliothis α1/chicken β2 receptors. It is filed as cell-based, Heliothis virescens / chicken. The note with it: membrane voltage −80 mV, FIG. 2C. On the procedure:
(§1) Xenopus oocytes were isolated and prepared as previously described (Bertrand et al. 1991). On the first day after isolation of the oocytes, in each case 10 nl of a solution with 2 ng of an appropriate cDNA expression vector were injected into the cell nuclei of the oocytes. The oocytes were kept at 19° C. in a suitable medium (BARTH solution consisting (in mM) of NaCl 88, KCl 1, NaHCO3 2.4, MgSO4 0.82, Ca(NO3)2 0.33, CaCl2 0.41, HEPES 10, pH 7.4) for 3–5 days. After this time, the electrophysiological experiments were carried out.
Electrophysiological recordings were carried out using a dual electrode voltage clamp by tried and tested methods which are well known (compare Bertrand et al. 1992). Each oocyte was placed singly in a measurement chamber and pierced by two microelectrodes. […] The membrane voltage was fixed at −80 mV using a voltage clamp amplifier (TEC-00, npi, Tamm, Germany), and the inward current flowing through the cell membrane was measured and recorded by computer. […]
(§2) In order to characterize the sensitivity of the modified receptors to acetylcholine and imidacloprid in more detail, dose-effect plots were recorded by repeating the experiment described above with different concentrations of the substance.

Experiment [2] has as its target T1, receptors consisting of the chicken β2 subunit and polypeptide according to SEQ ID NO: 11 (Gallus gallus, UniProt P09482+P09484, A209V/D197E/E200T/E219T/G202V/G211A/I207L/I224P/K217F/L196S/N208E/N212V/P226L/Q195L/S215E/S231N/T222D/V205D/V210P/W199Y/Y198F/Y213R/Y230F).
T1 construct: expressed in transfected cells; host or cells: Xenopus oocytes (nuclear injection of cDNA expression vectors)
It is filed as cell-based, Heliothis virescens / chicken. The note with it: Xenopus oocytes, membrane voltage −80 mV. As to the method:
as §1
(§3) Electrophysiological recordings were carried out using a dual electrode voltage clamp by tried and tested methods which are well known (compare Bertrand et al. 1992). Each oocyte was placed singly in a measurement chamber and pierced by two microelectrodes. […] The membrane voltage was fixed at −80 mV using a voltage clamp amplifier (TEC-00, npi, Tamm, Germany), and the inward current flowing through the cell membrane was measured and recorded by computer. Frog Ringer solution containing 115 mM NaCl; 2.5 mM KCl; 1.8 mM CaCl2; 10 mM HEPES; at pH 7.4 (adjusted with NaOH) flowed at a flow rate of 5–10 ml/minute through the measurement chamber. In order to test acetylcholine, imidacloprid or another active substance on these oocytes, the substance was added in the intended concentration to the frog Ringer solution and the perfusion of the measurement chamber was briefly changed over to this test solution. Acetylcholine (Fluka, Buchs, Switzerland) was stored as stock solution at −20° C. and added to the measurement solution immediately before the experiment.
(§4) In this case it is immediately evident from the occurrence of an additional inward current signal whether the receptor variant expressed in the particular oocyte can be activated by imidacloprid or not.
as §2

In experiment [3] the target is T2, receptors consisting of the chicken β2 subunit and polypeptide according to SEQ ID NO: 3 (Gallus gallus, UniProt P09482+P09484, A129E/D127N/D141T/F139N/F162Y/H132L/H137T/I144V/K145E/K171V/L133A/M147R/N169T/S157E/T161E).
T2 construct: expressed in transfected cells; host or cells: Xenopus oocytes (nuclear injection of cDNA expression vectors)
The experiment is classed as cell-based, Heliothis virescens / chicken. The note with it: Xenopus oocytes, membrane voltage −80 mV, FIG. 2A. On the procedure:
as §1, §3, §4, §2

Experiment [4] deals with T3, receptors consisting of the chicken β2 subunit and polypeptide according to SEQ ID NO: 7 (Gallus gallus, UniProt P09482+P09484, INS192RGTNVVELG).
T3 construct: expressed in transfected cells; host or cells: Xenopus oocytes (nuclear injection of cDNA expression vectors)
The experiment is classed as cell-based, Heliothis virescens / chicken. The note with it: Xenopus oocytes, membrane voltage −80 mV. As to the method:
as §1, §3, §4, §2

For experiment [5], the target named is T4, receptor containing polypeptide shown in SEQ ID NO: 3 and the chicken β2 subunit (Gallus gallus, UniProt P09482+P09484, A129E/D127N/D141T/F139N/F162Y/H132L/H137T/I144V/K145E/K171V/L133A/M147R/N169T/S157E/T161E).
T4 construct: expressed in transfected cells; host or cells: Spodoptera frugiperda Sf9 cells (transient, DAC-30; GFP co-transfected as a marker)
Kind of experiment: Whole-cell recordings on transfected Sf9 cells, SEQ ID NO: 3/chicken β2. It is filed as cell-based, Heliothis virescens / chicken. The note with it: −70 mV. The source says: Spodoptera frugiperda 9 (Sf9) cells were transfected simultaneously with cDNA expression plasmids which code for the modified heliothis/chicken subunit and for the chicken β2 subunit using a liposomal transfection reagent (DAC-30, Eurogentec, Belgium). A cDNA expression construct for the green fluorescent protein from Aequoria victoria was transfected simultaneously. This makes it possible simply to identify transfected cells because experience has shown that most of the cells which have taken up one of the constructs have also taken up the other ones. 24 to 48 hours after transfection, the currents through the cell membrane of the Sf9 cells were measured by whole-cell recordings. For this purpose, the potential difference across the cell membrane was kept constant at −70 mV. Substances were applied using the U-tube reversed flow technique (Fenwick 1982). The volume of the experimental chamber, which was continuously perfused with bath solution (3 ml/min), was less than 0.5 ml. […] The pipette solution contained (in mM): 150 KCl, 10 HEPES 10 K-EGTA (pH 7.2). The microelectrodes were produced in an electrode puller (Zeitz, Germany) from borosilicate glass blanks (external diameter 1.6 mm, Hilgenberg, Germany). The resistance of the flame-polished microelectrodes on use of the abovementioned pipette and bath solutions was between 4 and 6 MΩ. […]

In experiment [6] the target is chicken α4 subunit and the chicken β2 subunit (Gallus gallus, UniProt P09482+P09484). Kind of experiment: Whole-cell recordings on transfected Sf9 cells, chicken α4/β2. It is filed as cell-based. The note with it: −70 mV.
The subject of experiment [7] is Untransfected control cells (Sf9). Kind of experiment: Whole-cell recordings on untransfected Sf9 control cells. The experiment is classed as cell-based, Spodoptera frugiperda. The note with it: untransfected Sf9 control cells in the same experiment. The source says: Spodoptera frugiperda 9 (Sf9) cells were transfected simultaneously with cDNA expression plasmids which code for the modified heliothis/chicken subunit and for the chicken β2 subunit using a liposomal transfection reagent (DAC-30, Eurogentec, Belgium). A cDNA expression construct for the green fluorescent protein from Aequoria victoria was transfected simultaneously. This makes it possible simply to identify transfected cells because experience has shown that most of the cells which have taken up one of the constructs have also taken up the other ones. 24 to 48 hours after transfection, the currents through the cell membrane of the Sf9 cells were measured by whole-cell recordings. For this purpose, the potential difference across the cell membrane was kept constant at −70 mV. Substances were applied using the U-tube reversed flow technique (Fenwick 1982). […]
To check whether expression of the cDNAs which code for the modified heliothis/chicken subunit shown in SEQ ID NO: 3 and the chicken β2 subunit led to the production of functional acetylcholine receptors in the cells, whole-cell recordings were carried out by the method described above, during which the cells were stimulated with acetylcholine (1000 μM) or imidacloprid (100 μM). […] In order to quantify the results, a series of experiments was carried out with 5 measurements. […]

Regarding `O=[N+]([O-])NC1=NCCN1Cc1ccc(Cl)nc1` [imidacloprid], the “sensitivity (ligand-induced conductance)” value in experiment [1] is recorded as “sensitive”. The “ligand-induced conductance / sensitivity” value in experiment [2] was “only the receptors consisting of the chicken β2 subunit and polypeptides according to SEQ ID NO: 3 are sensitive to imidacloprid”; in experiment [3] it was “sensitive”; in experiment [4] it was “only the receptors consisting of the chicken β2 subunit and polypeptides according to SEQ ID NO: 3 are sensitive to imidacloprid”. Further, in experiment [5] (100 μM imidacloprid, FIG. 3), the “inward currents after stimulus” value is given as “strong inward currents”. Further, the “amplitude ratio (maximum amplitude on 100 μM imidacloprid divided by maximum amplitude on 1000 μM acetylcholine)” value in experiment [5] (n=5 cells) came out at 0.46±0.09; in experiment [6] (n=5 cells), 0.05±0.06. The “inward currents on application” value in experiment [6] (100 μM imidacloprid) is “either no or only very weak inward currents”. Further, the “response (inward current)” value in experiment [7] is “no response”.
Consider `CC(=O)OCC[N+](C)(C)C` [acetylcholine], for which the “response (inward current)” value in experiment [7] is “no response”.
